Where a SMILES comes first, the peptide text is derived from it. [ ]: non-standard residue; d: D form. The star is where a group is joined. NHCH2CH2OH = OCCN*; For = O=C*

Series [1] can be described thus: H+/Na+ transport assay of bead-derived peptides (one-point).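 Further: relative to parent gramicidin A activity set to 1.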 In kind it is biochemical. More on the design: key: relative activity; mean of two control wells = 1.00. Particulars: bead-derived peptide solution, EYPC/EYPG LUVs. In outline:
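One-point screen: peptide + pyranine-loaded LUVs, 30 min RT with vortexing, 96-well. Read-out is fluorescence intensity scaled as 100 × (Ix – I0)/(Imax – I0). Imax from Triton X-100, I0 from untreated vesicles, and the mean of the two control wells is set to 1.00.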

Series [2] concerns P388 mouse leukemia cells. The note with it: 92 h. In outline:
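Peptide stocks diluted 250× in growth medium; P388 cells 1 × 10^4 cells/mL final; 37 °C, 5% CO2, 92 h. WST-1 + 1-methoxy PMS, 4 h, A415. Output: % viability.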

Series [3] has as its system Streptococcus pyogenes SSI-9. The series is described as follows: Antibacterial activity assay of bead-derived peptides (three concentrations). In kind it is cell-based. Particulars: S. pyogenes, bead-derived peptide solution, three concentrations. More on the design: key: +++: inhibition by the 640-fold diluted peptide solution; ++: inhibition by the 160-fold diluted solution; +: inhibition by the 40-fold diluted solution; -: no inhibition. The essentials:
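Growth inhibition scored visually as precipitated bacteria after 37 °C, 18 h incubation. Streptococcus pyogenes SSI-9 inoculum of 2 × 10^5 CFU in Ca2+/Mg2+-adjusted Mueller Hinton broth plus 5% laked horse blood; peptides tested at three levels: stock, 4-fold and 16-fold DMSO dilutions.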

Turning to `CNC(=O)C[C@@H](NC(=O)[C@@H](NC(=O)[C@H](NC(=O)[C@H](C)NC(=O)[C@H](NC(=O)[C@H](C)NC(=O)CNC(=O)[C@@H](NC=O)C(C)C)C(C)C)C(C)C)C(C)C)C(=O)N[C@@H](Cc1c[nH]c2ccccc12)C(=O)N[C@H](CC(C)C)C(=O)N[C@@H](Cc1c[nH]c2ccccc12)C(=O)N[C@H](CC(C)C)C(=O)N[C@@H](Cc1c[nH]c2ccccc12)C(=O)N[C@@H](C(=O)N[C@@H](Cc1c[nH]c2ccccc12)C(=O)NCCO)C(C)C` [compound 11796] (For-VGA[dV]A[dV]V[dD](NHMe)W[dL]W[dL]W[dV]W-NHCH2CH2OH), in series [1], the “H+/Na+ transport activity normalized against the value of 1 (1.00)” value (“H+/Na+ transport activity normalized” below) came to 1.33. Further, the cell viability/% in series [2] stood at 100.0%. Besides, the antibacterial activity entry in series [3] is reported as “-”.
Regarding `CNC(=O)C[C@@H](NC(=O)[C@@H](NC(=O)[C@@H](CC(C)C)NC(=O)[C@H](C)NC(=O)[C@H](NC(=O)[C@H](C)NC(=O)CNC(=O)[C@@H](NC=O)C(C)C)C(C)C)C(C)C)C(=O)N[C@@H](Cc1c[nH]c2ccccc12)C(=O)N[C@H](CC(C)C)C(=O)N[C@@H](Cc1c[nH]c2ccccc12)C(=O)N[C@@H](C(=O)N[C@@H](Cc1c[nH]c2ccccc12)C(=O)N[C@@H](C(=O)N[C@@H](Cc1c[nH]c2ccccc12)C(=O)NCCO)C(C)C)C(C)C` [compound 12707] (For-VGA[dV]A[dL]V[dD](NHMe)W[dL]W[dV]W[dV]W-NHCH2CH2OH), in series [1], the “H+/Na+ transport activity normalized” value was determined as 1.06. The molecule also gave a cell viability/% in series [2] of 100.0%. Moreover, in series [3], the antibacterial activity result is listed as “-”.
As for `CC(C)C[C@@H](NC(=O)[C@H](C)NC(=O)[C@H](NC(=O)[C@H](C)NC(=O)CNC(=O)[C@@H](NC=O)C(C)C)C(C)C)C(=O)N[C@H](C(=O)N[C@@H](C(=O)N[C@@H](Cc1c[nH]c2ccccc12)C(=O)N[C@@H](C(=O)N[C@@H](Cc1c[nH]c2ccccc12)C(=O)N[C@H](CC(C)C)C(=O)N[C@@H](Cc1c[nH]c2ccccc12)C(=O)N[C@@H](C(=O)N[C@@H](Cc1c[nH]c2ccccc12)C(=O)NCCO)C(C)C)C(C)C)[C@H](C)O)C(C)C` [compound 9633] (For-VGA[dV]A[dL]V[dT]W[dV]W[dL]W[dV]W-NHCH2CH2OH), the “H+/Na+ transport activity normalized” value in series [1] turned out to be 1.06. In series [2], the cell viability/% turned out to be 100.0%. Moreover, the antibacterial activity result in series [3] is recorded as “-”.
`CC(C)C[C@@H](NC(=O)[C@H](C)NC(=O)CNC(=O)[C@@H](NC=O)C(C)C)C(=O)N[C@@H](C)C(=O)N[C@@H](C(=O)N[C@H](C(=O)N[C@@H](C(=O)N[C@@H](Cc1c[nH]c2ccccc12)C(=O)N[C@H](CC(C)C)C(=O)N[C@@H](Cc1c[nH]c2ccccc12)C(=O)N[C@H](CC(C)C)C(=O)N[C@@H](Cc1c[nH]c2ccccc12)C(=O)N[C@H](CC(C)C)C(=O)N[C@@H](Cc1c[nH]c2ccccc12)C(=O)NCCO)C(C)C)C(C)C)C(C)C` [compound 4495] (For-VGA[dL]A[dV]V[dV]W[dL]W[dL]W[dL]W-NHCH2CH2OH): the “H+/Na+ transport activity normalized” value in series [1] turned out to be 1.26. For the same molecule, the cell viability/% in series [2] turned out to be 3.5%. Moreover, in series [3], the antibacterial activity entry is given as “++”.
As for `CC(C)C[C@@H](NC(=O)[C@H](Cc1c[nH]c2ccccc12)NC(=O)[C@H](NC(=O)[C@H](Cc1c[nH]c2ccccc12)NC(=O)[C@H](NC(=O)[C@H](Cc1c[nH]c2ccccc12)NC(=O)[C@@H](CC(C)C)NC(=O)[C@@H](NC(=O)[C@H](NC(=O)[C@H](C)NC(=O)[C@H](NC(=O)[C@H](C)NC(=O)CNC(=O)[C@@H](NC=O)C(C)C)C(C)C)C(C)C)C(C)C)C(C)C)C(C)C)C(=O)N[C@@H](Cc1c[nH]c2ccccc12)C(=O)NCCO` [compound 10668] (For-VGA[dV]A[dV]V[dL]W[dV]W[dV]W[dL]W-NHCH2CH2OH), the “H+/Na+ transport activity normalized” value in series [1] turned out to be 1.09. This molecule gave a cell viability/% in series [2] of 57.1%. Besides, the antibacterial activity entry in series [3] is “+”.
For `CC(C)C[C@@H](NC(=O)[C@H](C)NC(=O)CNC(=O)[C@@H](NC=O)C(C)C)C(=O)N[C@@H](C)C(=O)N[C@@H](C(=O)N[C@H](C(=O)N[C@H](CC(C)C)C(=O)N[C@@H](Cc1c[nH]c2ccccc12)C(=O)N[C@@H](C(=O)N[C@@H](Cc1c[nH]c2ccccc12)C(=O)N[C@H](CC(C)C)C(=O)N[C@@H](Cc1c[nH]c2ccccc12)C(=O)N[C@H](CC(C)C)C(=O)N[C@@H](Cc1c[nH]c2ccccc12)C(=O)NCCO)C(C)C)C(C)C)C(C)C` [compound 8464] (For-VGA[dL]A[dV]V[dL]W[dV]W[dL]W[dL]W-NHCH2CH2OH), the “H+/Na+ transport activity normalized” value in series [1] amounted to 1.23. The cell viability/% in series [2] came to 4.1%. The antibacterial activity entry in series [3] is on record as “-”.
Take `CNC(=O)C[C@@H](NC(=O)[C@@H](NC(=O)[C@H](NC(=O)[C@H](C)NC(=O)[C@@H](CC(C)C)NC(=O)[C@H](C)NC(=O)CNC(=O)[C@@H](NC=O)C(C)C)C(C)C)C(C)C)C(=O)N[C@@H](Cc1c[nH]c2ccccc12)C(=O)N[C@@H](C(=O)N[C@@H](Cc1c[nH]c2ccccc12)C(=O)N[C@H](CC(C)C)C(=O)N[C@@H](Cc1c[nH]c2ccccc12)C(=O)N[C@@H](C(=O)N[C@@H](Cc1c[nH]c2ccccc12)C(=O)NCCO)C(C)C)C(C)C` [compound 9521] (For-VGA[dL]A[dV]V[dD](NHMe)W[dV]W[dL]W[dV]W-NHCH2CH2OH): in series [1], the “H+/Na+ transport activity normalized” value was determined as 1.14. The cell viability/% in series [2] is 100.0%. In addition, in series [3], the antibacterial activity entry was “-”.
In the case of `CC(C)C[C@@H](NC(=O)[C@H](C)NC(=O)CNC(=O)[C@@H](NC=O)C(C)C)C(=O)N[C@@H](C)C(=O)N[C@H](CC(C)C)C(=O)N[C@H](C(=O)N[C@@H](C(=O)N[C@@H](Cc1c[nH]c2ccccc12)C(=O)N[C@@H](C(=O)N[C@@H](Cc1c[nH]c2ccccc12)C(=O)N[C@@H](C(=O)N[C@@H](Cc1c[nH]c2ccccc12)C(=O)N[C@@H](C(=O)N[C@@H](Cc1c[nH]c2ccccc12)C(=O)NCCO)C(C)C)C(C)C)C(C)C)C(C)C)C(C)C` [compound 7100] (For-VGA[dL]A[dL]V[dV]W[dV]W[dV]W[dV]W-NHCH2CH2OH), the “H+/Na+ transport activity normalized” value in series [1] is recorded as 1.07. The same molecule yielded a cell viability/% in series [2] of 100.0%. The antibacterial activity result in series [3] is on record as “-”.
In the case of `CC(C)C[C@@H](NC(=O)[C@H](Cc1c[nH]c2ccccc12)NC(=O)[C@@H](CC(C)C)NC(=O)[C@@H](NC(=O)[C@H](NC(=O)[C@H](C)NC(=O)[C@H](NC(=O)[C@H](C)NC(=O)CNC(=O)[C@@H](NC=O)C(C)C)[C@H](C)O)C(C)C)C(C)C)C(=O)N[C@@H](Cc1c[nH]c2ccccc12)C(=O)N[C@H](CC(C)C)C(=O)N[C@@H](Cc1c[nH]c2ccccc12)C(=O)N[C@@H](C(=O)N[C@@H](Cc1c[nH]c2ccccc12)C(=O)NCCO)C(C)C` [compound 11317] (For-VGA[dT]A[dV]V[dL]W[dL]W[dL]W[dV]W-NHCH2CH2OH), the “H+/Na+ transport activity normalized” value in series [1] was 1.02. In series [2], this molecule showed a cell viability/% of 42.1%. For the same molecule, in series [3], the antibacterial activity result was “-”.
As for `CC(C)C[C@@H](NC(=O)[C@H](C)NC(=O)CNC(=O)[C@@H](NC=O)C(C)C)C(=O)N[C@@H](C)C(=O)N[C@H](CC(C)C)C(=O)N[C@H](C(=O)N[C@@H](C(=O)N[C@@H](Cc1c[nH]c2ccccc12)C(=O)N[C@H](CC(C)C)C(=O)N[C@@H](Cc1c[nH]c2ccccc12)C(=O)N[C@@H](C(=O)N[C@@H](Cc1c[nH]c2ccccc12)C(=O)N[C@H](CC(C)C)C(=O)N[C@@H](Cc1c[nH]c2ccccc12)C(=O)NCCO)[C@H](C)O)[C@H](C)O)C(C)C` [compound 3780] (For-VGA[dL]A[dL]V[dT]W[dL]W[dT]W[dL]W-NHCH2CH2OH), the “H+/Na+ transport activity normalized” value in series [1] is 1.16. Besides, in series [2], the cell viability/% is given as 100.0%. In series [3], the antibacterial activity result is reported as “-”.
Regarding `CC(C)C[C@@H](NC(=O)[C@H](C)NC(=O)CNC(=O)[C@@H](NC=O)C(C)C)C(=O)N[C@@H](C)C(=O)N[C@H](CC(C)C)C(=O)N[C@H](C(=O)N[C@H](CC(C)C)C(=O)N[C@@H](Cc1c[nH]c2ccccc12)C(=O)N[C@@H](C(=O)N[C@@H](Cc1c[nH]c2ccccc12)C(=O)N[C@@H](C(=O)N[C@@H](Cc1c[nH]c2ccccc12)C(=O)N[C@@H](C(=O)N[C@@H](Cc1c[nH]c2ccccc12)C(=O)NCCO)C(C)C)C(C)C)C(C)C)C(C)C` [compound 5611] (For-VGA[dL]A[dL]V[dL]W[dV]W[dV]W[dV]W-NHCH2CH2OH), in series [1], the “H+/Na+ transport activity normalized” value came to 1.17. Moreover, in series [2], the cell viability/% amounted to 3.9%. For the same molecule, the antibacterial activity entry in series [3] is reported as “+”.
Consider `CNC(=O)C[C@@H](NC(=O)[C@H](Cc1c[nH]c2ccccc12)NC(=O)[C@@H](CC(C)C)NC(=O)[C@H](Cc1c[nH]c2ccccc12)NC(=O)[C@@H](CC(C)C)NC(=O)[C@H](Cc1c[nH]c2ccccc12)NC(=O)[C@H](NC(=O)[C@@H](NC(=O)[C@H](NC(=O)[C@H](C)NC(=O)[C@@H](CC(C)C)NC(=O)[C@H](C)NC(=O)CNC(=O)[C@@H](NC=O)C(C)C)C(C)C)C(C)C)C(C)C)C(=O)N[C@@H](Cc1c[nH]c2ccccc12)C(=O)NCCO` [compound 2020] (For-VGA[dL]A[dV]V[dV]W[dL]W[dL]W[dD](NHMe)W-NHCH2CH2OH), for which the “H+/Na+ transport activity normalized” value in series [1] amounted to 1.02. In addition, in series [2], the cell viability/% turned out to be 100.0%. Also, the antibacterial activity result in series [3] is given as “-”.
